Experimental data as given in patent US9040529B2 (Vichem Chemie Kutató Kft., priority 2009, dated 2015).

These molecules were tested against T1, human CDK9/CyclinT kinase complex (Homo sapiens, UniProt P50750) (assay: In vitro CDK9/CyclinT assay (IMAP fluorescence polarization kinase assay)). Conditions: not given.
T1 construct: purchased Proqinase 0371-0345-1
Assay type: biochemical
Procedure: In Vitro CDK9/CyclinT Assay
The activity of the compounds described in the present invention can be determined by the following kinase assay, which measures the phosphorylation of a fluorescently-labeled peptide by human CDK9/CyclinT kinase complex by fluorescent polarization using a commercially available IMAP Screening Express Assay Kit (Molecular devices).
CDK9 kinase assays were performed in low protein binding 384-well plates (Corning 3676). Test compounds were diluted in 100% DMSO to 5 mM stock concentration, then further dilutions were made in H2O or 100% DMSO to desirable concentrations.
Each reaction consisted of 5 nM enzyme: CDK9/CyclinT (Proqinase cat#0371-0345-1), 400 nM TAMRA-Rbtide (synthetic 15-mer peptide derived from human retinoblastoma tumor suppressor protein labelled with TAMRA dye, Genecust Europe), 12 μM ATP (=Kmapp, Sigma-Aldrich) and kinase buffer: 20 mM MOPS pH 7 (Sigma-Aldrich), 1 mM DTT (Sigma-Aldrich), 10 mM MgCl2 (Sigma-Aldrich), 0.01% Tween 20 (Sigma-Aldrich).
For each reaction, 4 or 6 μl containing TAMRA-Rbtide, ATP and kianse buffer were combined with 2 μl diluted compound in H2O or 0.028 μl compound in 100% DMSO. The kinase reaction was started by the addition of 2 μl diluted enzyme. The reaction was allowed to run for 1 hours at room temperature. The reaction was stopped by adding 15 μl IMAP beads (1:400 beads in progressive (100% buffer A) 1× buffer). After an additional 1 hours, fluorescent polarization (Ex: 550-10 nm, Em: 590-10 nm, Dich: 561 nm) was measured using an Analyst GT (Molecular devices).

T1 sequence (P50750 whole entry): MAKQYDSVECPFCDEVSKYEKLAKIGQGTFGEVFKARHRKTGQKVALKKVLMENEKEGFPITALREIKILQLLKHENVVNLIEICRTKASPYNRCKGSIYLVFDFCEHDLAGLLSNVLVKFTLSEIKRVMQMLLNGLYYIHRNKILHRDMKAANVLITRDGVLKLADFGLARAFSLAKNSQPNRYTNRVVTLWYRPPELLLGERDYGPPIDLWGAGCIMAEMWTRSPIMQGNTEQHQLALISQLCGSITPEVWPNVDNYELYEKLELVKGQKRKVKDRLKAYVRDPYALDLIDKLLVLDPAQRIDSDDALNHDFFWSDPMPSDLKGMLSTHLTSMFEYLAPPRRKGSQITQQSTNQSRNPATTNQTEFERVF
T1 sequence (O60563 whole entry partner): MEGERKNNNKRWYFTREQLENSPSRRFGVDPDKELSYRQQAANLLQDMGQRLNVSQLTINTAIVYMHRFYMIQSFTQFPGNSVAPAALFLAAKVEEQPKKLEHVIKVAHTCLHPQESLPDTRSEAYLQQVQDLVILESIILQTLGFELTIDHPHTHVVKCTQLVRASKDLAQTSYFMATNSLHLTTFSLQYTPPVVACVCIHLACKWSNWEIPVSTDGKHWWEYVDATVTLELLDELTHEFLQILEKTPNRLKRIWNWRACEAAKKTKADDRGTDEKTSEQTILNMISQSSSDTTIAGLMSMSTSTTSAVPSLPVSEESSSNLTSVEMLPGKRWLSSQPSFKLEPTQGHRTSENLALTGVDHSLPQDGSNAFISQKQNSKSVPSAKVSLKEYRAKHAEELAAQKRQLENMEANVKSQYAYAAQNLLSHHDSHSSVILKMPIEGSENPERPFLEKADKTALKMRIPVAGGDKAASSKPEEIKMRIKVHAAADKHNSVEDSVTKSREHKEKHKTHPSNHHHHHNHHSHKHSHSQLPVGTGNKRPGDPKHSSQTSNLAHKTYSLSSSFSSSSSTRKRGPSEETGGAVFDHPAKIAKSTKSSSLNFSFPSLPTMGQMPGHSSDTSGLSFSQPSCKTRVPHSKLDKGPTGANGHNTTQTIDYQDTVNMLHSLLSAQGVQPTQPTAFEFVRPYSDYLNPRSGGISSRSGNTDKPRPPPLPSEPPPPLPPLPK

**Q.** For COc1cc(F)ccc1-c1cc(Nc2cccc(CNS(C)(=O)=O)c2)ncn1 [Example 7, N-{3-[6-(4-Fluoro-2-methoxy-phenyl)-pyrimidin-4-ylamino]-benzyl}-methanesulfonamide], which CDK9 inhibitory effect is on record?
**A.** The CDK9 inhibitory effect was “nanomolar or low nanomolar range”.

**Q.** With CCCS(=O)(=O)NCc1cccc(Nc2cc(-c3ccccc3OC)ncn2)c1 [Example 71, Propane-1-sulfonic acid 3-[6-(2-methoxy-phenyl)-pyrimidin-4-ylamino]-benzylamide] as the molecule, how does the CDK9 inhibitory effect read?
**A.** The CDK9 inhibitory effect was “nanomolar or low nanomolar range”.

**Q.** For COc1ccccc1-c1cc(Nc2cccc(CN3C(=O)c4ccccc4C3=O)c2)ncn1 [Example 68, 2-{3-[6-(2-Methoxy-phenyl)-pyrimidin-4-ylamino]-benzyl}-isoindole-1,3-dione], which CDK9 inhibitory effect is on record?
**A.** The CDK9 inhibitory effect was “nanomolar or low nanomolar range”.

**Q.** COc1cccc(F)c1-c1cc(Nc2cccc(CNS(C)(=O)=O)c2)ncn1 [Example 13, N-{3-[6-(2-Fluoro-6-methoxy-phenyl)-pyrimidin-4-ylamino]-benzyl}-methanesulfonamide] was tested. Which CDK9 inhibitory effect did it give?
**A.** Its CDK9 inhibitory effect is “nanomolar or low nanomolar range”.

**Q.** With COc1cc(F)ccc1-c1cc(Nc2cccc(Cn3cnc4ccccc43)c2)ncn1 [Example 65, (3-Benzoimidazol-1-ylmethyl-phenyl)-[6-(4-fluoro-2-methoxy-phenyl)-pyrimidin-4-yl]-amine] as the molecule, how does the CDK9 inhibitory effect read?
**A.** Its CDK9 inhibitory effect is “nanomolar or low nanomolar range”.

Same assay, conditions: 5 nM CDK9/CyclinT, 400 nM TAMRA-Rbtide, 12 μM ATP, 1 hour at room temperature; read-out: CDK9 inhibitory range

**Q.** CSc1ccccc1-c1cc(Nc2ccc(CNS(C)(=O)=O)cc2)ncn1 [Example 41, N-{4-[6-(2-Methylsulfanyl-phenyl)-pyrimidin-4-ylamino]-benzyl}-methanesulfonamide] was tested. Which IC50 did it give?
**A.** Its IC50 is < 1000 nM.

**Q.** With COc1ccccc1-c1cc(Nc2cccc(CNC(=O)Nc3ccc(F)cc3)c2)ncn1 [Example 85, 1-(4-Fluoro-phenyl)-3-{3-[6-(2-methoxy-phenyl)-pyrimidin-4-ylamino]-benzyl}-urea] as the molecule, how does the IC50 read?
**A.** Its IC50 is < 10000 nM.

**Q.** For Cc1ccccc1-c1cc(Nc2cccc(CNS(C)(=O)=O)c2)ncn1 [Example 11, N-[3-(6-o-Tolyl-pyrimidin-4-ylamino)-benzyl]-methanesulfonamide], which IC50 is on record?
**A.** The IC50 was < 10000 nM.

**Q.** For CC(C)Oc1ccccc1-c1cc(Nc2cccc(CNS(C)(=O)=O)c2)ncn1 [Example 8, N-{3-[6-(2-Isopropoxy-phenyl)-pyrimidin-4-ylamino]-benzyl}-methanesulfonamide], which IC50 is on record?
**A.** Its IC50 is < 1000 nM.

**Q.** Which IC50 does the source give for COc1ccccc1-c1cc(Nc2cccc(Cn3ccc4ccccc43)c2)ncn1 [Example 91, (3-Indol-1-ylmethyl-phenyl)-[6-(2-methoxy-phenyl)-pyrimidin-4-yl]-amine] here?
**A.** The IC50 was < 10000 nM.

**Q.** With CCCOc1ccccc1-c1cc(Nc2cccc(CNS(C)(=O)=O)c2)ncn1 [Example 31, N-{3-[6-(2-Propoxy-phenyl)-pyrimidin-4-ylamino]-benzyl}-methanesulfonamide] as the molecule, how does the IC50 read?
**A.** The IC50 was < 1000 nM.

**Q.** COc1cc(F)ccc1-c1cc(Nc2cccc(CNS(C)(=O)=O)c2)ncn1 [Example 7, N-{3-[6-(4-Fluoro-2-methoxy-phenyl)-pyrimidin-4-ylamino]-benzyl}-methanesulfonamide] was tested. Which IC50 did it give?
**A.** The IC50 was < 100 nM.

**Q.** How did the IC50 turn out when COc1ccccc1-c1cc(Nc2cccc(CNC(=O)c3ccc(F)cc3)c2)ncn1 [Example 84, 4-Fluoro-N-{3-[6-(2-methoxy-phenyl)-pyrimidin-4-ylamino]-benzyl}-benzamide] was run?
**A.** Its IC50 is < 1000 nM.

**Q.** For CS(=O)(=O)NCc1ccc(Nc2cc(-c3ccccc3OCc3cccc(F)c3)ncn2)cc1 [Example 49, N-(4-{6-[2-(3-Fluoro-benzyloxy)-phenyl]-pyrimidin-4-ylamino}-benzyl)-methanesulfonamide], which IC50 is on record?
**A.** Its IC50 is < 1000 nM.

**Q.** CC(C)COc1ccccc1-c1cc(Nc2ccc(CNS(C)(=O)=O)cc2)ncn1 [Example 51, N-{4-[6-(2-Isobutoxy-phenyl)-pyrimidin-4-ylamino]-benzyl}-methanesulfonamide] was tested. Which IC50 did it give?
**A.** The IC50 was < 1000 nM.

**Q.** CS(=O)(=O)NCc1cccc(Nc2cc(-c3ccccc3C(F)(F)F)ncn2)c1 [Example 18, N-{3-[6-(2-Trifluoromethyl-phenyl)-pyrimidin-4-ylamino]-benzyl}-methanesulfonamide] was tested. Which IC50 did it give?
**A.** Its IC50 is > 10000 nM.

**Q.** For CCCS(=O)(=O)NCc1cccc(Nc2cc(-c3ccccc3OC)ncn2)c1 [Example 71, Propane-1-sulfonic acid 3-[6-(2-methoxy-phenyl)-pyrimidin-4-ylamino]-benzylamide], which IC50 is on record?
**A.** Its IC50 is < 100 nM.

**Q.** How did the IC50 turn out when COc1ccccc1-c1cc(Nc2cccc(CN3C(=O)c4ccccc4C3=O)c2)ncn1 [Example 68, 2-{3-[6-(2-Methoxy-phenyl)-pyrimidin-4-ylamino]-benzyl}-isoindole-1,3-dione] was run?
**A.** The IC50 was < 100 nM.

**Q.** How did the IC50 turn out when CC(C)Oc1cc(F)ccc1-c1cc(Nc2cccc(CNS(C)(=O)=O)c2)ncn1 [Example 14, N-{3-[6-(4-Fluoro-2-isopropoxy-phenyl)-pyrimidin-4-ylamino]-benzyl}-methanesulfonamide] was run?
**A.** Its IC50 is < 1000 nM.

**Q.** Which IC50 does the source give for CS(=O)(=O)NCc1ccc(Nc2cc(-c3ccccc3C(F)(F)F)ncn2)cc1 [Example 43, N-{4-[6-(2-Trifluoromethyl-phenyl)-pyrimidin-4-ylamino]-benzyl}-methanesulfonamide] here?
**A.** Its IC50 is > 10000 nM.

**Q.** With COc1ccc(C)cc1-c1cc(Nc2cccc(CNS(C)(=O)=O)c2)ncn1 [Example 26, N-{3-[6-(2-Methoxy-5-methyl-phenyl)-pyrimidin-4-ylamino]-benzyl}-methanesulfonamide] as the molecule, how does the IC50 read?
**A.** Its IC50 is < 10000 nM.

**Q.** How did the IC50 turn out when CS(=O)(=O)NCc1ccc(Nc2cc(-c3cn[nH]c3)ncn2)cc1 [Example 58, N-{4-[6-(1H-Pyrazol-4-yl)-pyrimidin-4-ylamino]-benzyl}-methanesulfonamide] was run?
**A.** The IC50 was > 10000 nM.

**Q.** How did the IC50 turn out when Oc1ccc(-c2cc(Nc3ccc(Cn4cnc5ccccc54)cc3)ncn2)cc1 [Example 89, 4-[6-(4-Benzoimidazol-1-ylmethyl-phenylamino)-pyrimidin-4-yl]-phenol] was run?
**A.** The IC50 was < 1000 nM.

**Q.** How did the IC50 turn out when CCc1ccccc1-c1cc(Nc2cccc(CNS(C)(=O)=O)c2)ncn1 [Example 12, N-{3-[6-(2-Ethyl-phenyl)-pyrimidin-4-ylamino]-benzyl}-methanesulfonamide] was run?
**A.** The IC50 was < 1000 nM.

**Q.** With Oc1ccc(-c2cc(Nc3cccc(CNc4nc5ccccc5[nH]4)c3)ncn2)cc1 [Example 78, 4-(6-{3-[(1H-Benzoimidazol-2-ylamino)-methyl]-phenylamino}-pyrimidin-4-yl)-phenol] as the molecule, how does the IC50 read?
**A.** Its IC50 is < 1000 nM.

**Q.** For CS(=O)(=O)NCc1cccc(Nc2cc(-c3ccccc3OCc3ccc(F)cc3)ncn2)c1 [Example 10, N-(3-{6-[2-(4-Fluoro-benzyloxy)-phenyl]-pyrimidin-4-ylamino}-benzyl)-methanesulfonamide], which IC50 is on record?
**A.** Its IC50 is < 1000 nM.

**Q.** With CC(C)Oc1cc(F)ccc1-c1cc(Nc2ccc(Cn3cnc4ccccc43)cc2)ncn1 [Example 88, (4-Benzoimidazol-1-ylmethyl-phenyl)-[6-(4-fluoro-2-isopropoxy-phenyl)-pyrimidin-4-yl]-amine] as the molecule, how does the IC50 read?
**A.** The IC50 was < 1000 nM.

**Q.** How did the IC50 turn out when COc1cccc(F)c1-c1cc(Nc2cccc(CNS(C)(=O)=O)c2)ncn1 [Example 13, N-{3-[6-(2-Fluoro-6-methoxy-phenyl)-pyrimidin-4-ylamino]-benzyl}-methanesulfonamide] was run?
**A.** The IC50 was < 100 nM.

**Q.** How did the IC50 turn out when CS(=O)(=O)NCc1ccc(Nc2cc(-c3ccc(O)cc3)ncn2)cc1 [Example 76, N-{4-[6-(4-Hydroxy-phenyl)-pyrimidin-4-ylamino]-benzyl}-methanesulfonamide] was run?
**A.** Its IC50 is < 1000 nM.

**Q.** COc1ccccc1-c1cc(Nc2cccc(CNS(=O)(=O)c3c(Cl)cccc3Cl)c2)ncn1 [Example 70, 2,6-Dichloro-N-{3-[6-(2-methoxy-phenyl)-pyrimidin-4-ylamino]-benzyl}-benzenesulfonamide] was tested. Which IC50 did it give?
**A.** Its IC50 is < 1000 nM.

**Q.** For COc1ccc(F)cc1-c1cc(Nc2ccc(CNS(C)(=O)=O)cc2)ncn1 [Example 38, N-{4-[6-(5-Fluoro-2-methoxy-phenyl)-pyrimidin-4-ylamino]-benzyl}-methanesulfonamide], which IC50 is on record?
**A.** Its IC50 is < 1000 nM.

**Q.** How did the IC50 turn out when COc1cc(F)ccc1-c1cc(Nc2cccc(Cn3cnc4ccccc43)c2)ncn1 [Example 65, (3-Benzoimidazol-1-ylmethyl-phenyl)-[6-(4-fluoro-2-methoxy-phenyl)-pyrimidin-4-yl]-amine] was run?
**A.** The IC50 was < 100 nM.

**Q.** COc1ccccc1-c1cc(Nc2ccc(Cn3cnc4ccccc43)cc2)ncn1 [Example 87, (4-Benzoimidazol-1-ylmethyl-phenyl)-[6-(2-methoxy-phenyl)-pyrimidin-4-yl]-amine] was tested. Which IC50 did it give?
**A.** The IC50 was < 1000 nM.

**Q.** COc1ccc(-c2cc(Nc3cccc(CNS(C)(=O)=O)c3)ncn2)c(OC)c1 [Example 24, N-{3-[6-(2,4-Dimethoxy-phenyl)-pyrimidin-4-ylamino]-benzyl}-methanesulfonamide] was tested. Which IC50 did it give?
**A.** The IC50 was < 1000 nM.
